“Also recorded” adds a separate entry of the source. Read-outs that look alike come from different tables or passages of the source.
What was measured:
[1] = test system: TodS; conditions: agonist / antagonist classification, ref Busch et al., 2007, cited from earlier work
[2] = target: T1, TmoS (Ectopseudomonas mendocina, UniProt Q8KIY1); type: biochemical, Pseudomonas mendocina KR1
[3] = target: T1, TmoS; test: Isothermal titration calorimetry of purified TmoS with effector molecules; type: binding, Pseudomonas mendocina KR1; conditions: for TΔS / affinity / binding to TmoS, in words / ΔH: TmoS
[4] = test system: TmoS; test: as above; type: binding, Pseudomonas mendocina KR1; conditions: TodS values from Busch et al., 2007
[5] = test system: T4MO; conditions: T4MO substrate; ref Mitchell et al., 2002; cited from earlier work
[6] = target: CitA; conditions: read-out: KD for CitA; determined by ITC; ref Kaspar et al., 1999; cited from earlier work
[7] = 100 µM effector (saturating), 30 min, 10 µM TmoS, 4°C
[8] = 100 µM effector, time course (Fig. 4B and C)
[9] = ITC, typically 10 µM TmoS titrated with 500 µM effector, pH 7.5

T1 sequence (Q8KIY1 whole entry): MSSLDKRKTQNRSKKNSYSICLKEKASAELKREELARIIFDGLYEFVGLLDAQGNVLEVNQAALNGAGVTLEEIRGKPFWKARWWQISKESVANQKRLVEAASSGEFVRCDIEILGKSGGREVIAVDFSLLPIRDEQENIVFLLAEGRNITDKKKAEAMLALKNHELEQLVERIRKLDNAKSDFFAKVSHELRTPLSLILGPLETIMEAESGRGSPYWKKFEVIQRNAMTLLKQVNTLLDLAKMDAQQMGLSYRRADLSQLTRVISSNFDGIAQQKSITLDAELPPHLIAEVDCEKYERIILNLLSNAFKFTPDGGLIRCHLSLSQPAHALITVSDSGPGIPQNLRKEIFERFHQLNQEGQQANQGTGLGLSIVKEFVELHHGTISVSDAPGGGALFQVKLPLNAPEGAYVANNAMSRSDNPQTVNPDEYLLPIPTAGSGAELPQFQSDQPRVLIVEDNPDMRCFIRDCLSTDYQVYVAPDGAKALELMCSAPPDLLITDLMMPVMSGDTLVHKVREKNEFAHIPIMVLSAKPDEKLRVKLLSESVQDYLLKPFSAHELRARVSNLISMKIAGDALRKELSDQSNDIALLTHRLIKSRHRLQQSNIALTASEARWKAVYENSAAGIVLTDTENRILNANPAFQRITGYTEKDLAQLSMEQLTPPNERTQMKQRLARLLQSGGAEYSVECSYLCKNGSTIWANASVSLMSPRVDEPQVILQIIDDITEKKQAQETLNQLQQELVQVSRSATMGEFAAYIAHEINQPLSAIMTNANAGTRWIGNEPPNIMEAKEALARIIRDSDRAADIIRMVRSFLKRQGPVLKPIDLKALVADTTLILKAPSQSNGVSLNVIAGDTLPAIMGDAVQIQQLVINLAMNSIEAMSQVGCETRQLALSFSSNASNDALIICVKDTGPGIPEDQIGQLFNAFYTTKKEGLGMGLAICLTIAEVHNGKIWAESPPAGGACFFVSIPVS

Row | Molecule | Effect on TodS [1] | Kd [3] | TΔS ([3]; ITC) | affinity / binding to TmoS, in words ([3]; ITC) | ΔH ([3]; ITC) | affinity for TmoS relative to TodS [4] | also measured
1 | Cc1ccc(C)c(C)c1 [1,2,4 Trimethylbenzene] | Antagonist | 3460 ± 500 nM | 5.6 ± 0.2 kcal/mol | tight binding | -1.5 ± 0.2 kcal/mol |  | TmoS phosphorylation state in presence of effector versus control [2]: very similar to the control; also recorded: failed to increase
2 | c1ccccc1 [Benzene] | Agonist | 170 nM | 3.6 ± 0.1 kcal/mol | nanomolar range | -5.3 ± 0.1 kcal/mol | around 4.5 times | TmoS phosphorylation state in presence of effector versus control [2]: increased phosphorylation; stimulation of TmoS autokinase activity in kinetics experiment [2]: significantly inferior
3 | Clc1ccccc1 [Chlorobenzene] | Agonist | 1250 ± 70 nM |  |  | -6.9 ± 0.3 kcal/mol | comparable | TmoS phosphorylation state in presence of effector versus control [2]: increased phosphorylation
4 | CCc1ccccc1 [Ethylbenzene] | Agonist |  | 4.1 ± 0.1 kcal/mol |  | -3.5 ± 0.1 kcal/mol | tighter | TmoS phosphorylation state in presence of effector versus control [2, 7]: increased phosphorylation; Kd ([3]; KD, ITC, typically 10 µM TmoS titrated with 500 µM effector, pH 7.5): 1560 ± 100 nM
5 | O=[N+]([O-])c1ccccc1 [Nitrobenzene] | Agonist | 230 ± 30 nM | 4.5 ± 0.1 kcal/mol | nanomolar range | -4.1 ± 0.1 kcal/mol | 29 times | 
6 | C=Cc1ccccc1 [Styrene] | Agonist | 810 ± 100 nM | 3.3 ± 0.3 kcal/mol | nanomolar range | -4.8 ± 0.3 kcal/mol | comparable | 
7 | Cc1ccccc1 [Toluene] |  |  | 2.4 ± 0.1 kcal/mol |  | -6.5 ± 0.1 kcal/mol |  | TmoS phosphorylation state in presence of effector versus control [2, 7]: most pronounced increase; TmoS phosphorylation state in presence of effector versus control ([2]; 100 µM effector (saturating), 30 min, 10 µM TmoS, 4°C, listed as toluene): increased phosphorylation; time of maximal TmoS phosphorylation ([2]; 100 µM effector, kinetics of autophosphorylation): 40 min; stimulation of TmoS autokinase activity in kinetics experiment [2, 8]: most pronounced increase; Km [5]: 4 µM
8 | O=C(O)CC(O)(CC(=O)O)C(=O)O [citrate] |  |  |  |  |  |  | Kd [6]: 5500 nM
9 | C1CCCCC1 [cyclohexane] | No binding |  | No binding | failed to bind | No binding |  | KA [3, 9]: No binding; KD [3, 9]: No binding
10 | Cc1cccc(Cl)c1 [m‐Chlorotoluene] | Agonist | 2070 ± 600 nM | 1.5 ± 0.8 kcal/mol |  | -5.9 ± 0.9 kcal/mol |  | 
11 | Cc1cccc(C)c1 [m‐xylene] | Agonist | 710 ± 90 nM | 1.1 ± 0.6 kcal/mol |  |  |  | 
12 | Cc1ccccc1Cl [o‐Chlorotoluene] | Antagonist |  | 2.4 ± 0.9 kcal/mol |  | -5.1 ± 0.9 kcal/mol |  | Effect on TodS ([1]; listed as o‐chlorotoluene): antagonists; TmoS phosphorylation state in presence of effector versus control [2, 7]: very similar to the control; also recorded: failed to increase; also recorded: did not trigger an increase; Kd [3, 9]: 2140 ± 400 nM
13 | Cc1ccccc1C [o‐xylene] | Antagonist | 290 ± 10 nM |  |  | -8.9 ± 0.1 kcal/mol |  | Effect on TodS ([1]; listed as o‐ xylene): antagonists; TmoS phosphorylation state in presence of effector versus control [2, 7]: very similar to the control; also recorded: failed to increase; also recorded: did not trigger an increase
14 | Cc1ccc(Cl)cc1 [p‐Chlorotoluene] | Agonist |  | 5.3 ± 0.1 kcal/mol | nanomolar range | -2.7 ± 0.1 kcal/mol |  | 
15 | Cc1ccc(C)cc1 [p‐xylene] | Agonist | 460 ± 50 nM | 4.9 ± 0.29 kcal/mol |  | -3.4 ± 0.3 kcal/mol |  | 
16 | chlorotoluene |  |  |  |  |  |  | stimulation of TmoS autokinase activity in kinetics experiment [2, 8]: significantly inferior

— article PMC3815326 (Microbial biotechnology, 2012)
